Experimental findings from patent US9314453B2, “Tetrahydropyridoethers for treatment of AMD” (KATAIRO GmbH, priority 2008, dated 2016) are described below.

The subject of series [1] is RPE cells. The series is described as follows: Fluorescence microscopy of lipofuscin granules in RPE sections of treated monkeys. The class given is in vivo, Cynomolgus monkey. The text has this: Section was illuminated under the fluorescence microscope with 360 nm wavelength light. Lipofuscin granules were detected by the emission of gold-yellow light with […] wavelength. […] Macrophages between the RPE and Bruch's membrane, however, contained many lipofuscin granules. The majority of these granules were smaller than those in RPE cells of untreated animals.

The test system of series [2] is retinal pigment epithelium. The series can be described thus: Transmission electron microscopy of RPE and photoreceptors after 52 weeks oral treatment. It is filed as in vivo, Cynomolgus monkey. The procedure: In the present example the effect of Soraprazan on pigmentation of the retinal pigment epithelium in the Cynomolgus monkey (4 years of age) after oral application of 24 mg/kg/day for 52 weeks is shown.
Right eyes from the following animals were subjected to transmission electron microscopy:
Right eyes were removed carefully. A circular slit was cut at the limbus in order to immerse the inner eye with the fixation fluid (5% Glutaraldehyd in […] Cacodylat buffer). From these eyes, specimens ([…] in diameter) from the macula and from the mid-area were cut out, were postfixed in OsO4, treated with uranylacetate, dehydrated and embedded in Epon resin.
Semithin sections (0.7 μm) were prepared from Epon resin blocks. They were stained with toluidin blue and evaluated under a light microscope. Subsequently, ultrathin sections (50 nm) were cut from Epon resin blocks, contrasted and evaluated in a transmission electron microscope.
The number of lipofuscin granules that were smaller than 0.4 μm in diameter was counted in the cytoplasm of ultrathin sections of RPE cells from untreated and treated monkeys. In addition the same counts were performed in macrophages located between RPE and Bruch's membrane of treated monkeys. The results were 4.9±0.6/50 μm^2, 0.6±0.2/50 μm^2; […]. Lipofuscin granules larger than 1 μm in diameter were absent in RPE cells of treated animals. In contrast many of them were present in RPE cells of untreated monkeys.

Series [3] relates to RPE. The series can be described thus: Counting of fluorescent lipofuscin particles in RPE after intravitreal injection in Wistar rats. It is filed as in vivo. The conditions noted are these: three weeks after one single intravitreal injection, 50 μg/ml or 0.25 mM in the vitreous. The procedure:
(§1) The effects of lipofuscin in vivo, i.e. in the living eye of experimental rats after an intravitreal injection of the compounds were investigated. Vehicle solution or solutions of either substance 1 or Soraprazan were injected intravitreally in half-year old Wistar rats. The final concentration in the vitreous was the same as in the cell cultures, i.e. 50 μg/ml or 0.25 mM. In order to avoid mutual interactions between the two eyes of an animal, both eyes of an animal were treated the same way, with three animals (i.e. six eyes) per group.
(§2) Two kinds of evaluation were performed in these animals—electroretinography (ERG) for functional testing, and counting of lipofuscin particles to check whether the administration of the compounds leads to a decrease of lipofuscin contents in the RPE.
The eyes were isolated after three weeks, fixed in formalin and embedded in paraffin. Paraffin sections were made, and digital fluorescence images were evaluated. The number of fluorescent lipofuscin particles per 50 μm RPE layer length was counted. The results are shown in the diagram (FIG. 21).

Series [4] has as its system Retinal pigment epithelium (RPE) cells from human donor eyes. The series is described as follows: Lipofuscin content and pigmentation in cultured RPE cells from human donor eyes (digital image analysis). It is filed as cell-based. The settings on record: for Lipofuscin and pigment content in cultured RPE cells: 50 μg/ml or 0.25 mM, permanent exposure, versus control; for Lipofuscin and melanin in cultured human RPE cells: after 26 days of treatment (FIG. 18). The procedure: Retinal pigment epithelium (RPE) cells from human donor eyes were cultured and exposed permanently to either vehicle solution, solution of Soraprazan or solution of 7R,8R,9R)-2,3-Dimethyl-7-ethoxy-8-hydroxy-9-phenyl-7,8,9,10-tetrahydro-imidazo-[1,2-h][1,7]-naphthyridin (called substance 1) at a concentration of 50 μg/ml or 0.25 mM. At several time points, digital images were taken and analysed with respect to the portion of lipofuscin and pigmentation in general. As the results did strongly depend on the random choice of microscopic field and the variations of the data were very high, the values of four consecutive days of five independent experiments were averaged. The results for the lipofuscin content in the RPE cells are shown in the diagram (FIG. 18).
Retinal pigment epithelium (RPE) cells from human donor eyes were cultured and exposed permanently to either vehicle solution, solution of Soraprazan or solution of substance 1 (concentration 50 μg/ml or 0.25 mM). At several time points, digital images were taken and analysed with respect to the portion of lipofuscin and pigmentation in general.

Series [5] deals with photoreceptors and post-receptoral systems. The series is described as follows: Electroretinography (ERG) after intravitreal injection in Wistar rats. It is filed as in vivo. The settings on record: for ERG a-wave and b-wave amplitudes after injection, compared with vehicle: intravitreal, 50 μg/ml or 0.25 mM in the vitreous, highest light intensity, initial decrease; for ERG a-wave and b-wave amplitudes, recovery: three weeks after the intravitreal injection. The procedure: as §1, §2
Before the injection, electroretinograms were measured to obtain base line values. Additional ERG measurements were performed one, two and three weeks after the intravitreal injections. Some results are shown in the diagrams below.

In series [6] the test system is RPE cells. The series can be described thus: 52-week oral study in the Cynomolgus monkey, conventional histopathology. The class given is in vivo. The procedure: Soraprazan was administrated in oral application of 6, 12 and 24 mg/kg/day for 52 weeks in the Cynomolgus monkey.
Some monkeys from the control and the high-dose group were subjected to a recovery period of 3 months.
Two of these 3 monkeys had depigmentation of RPE cells although the photoreceptors facing the depigmented RPE stayed healthy. These RPE cells had released melanin as well as lipofuscin granules to secondary cells that had migrated between Bruch's membrane and the RPE cell layer or into the subretinal space.

Series [7] concerns Heavily pigmented human donor RPE cells. The series is described as follows: Electron microscopy / semithin sections of heavily pigmented human donor RPE cells, degradational clusters. It is filed as cell-based. The conditions noted are these: 28 days. The procedure: Heavily pigmented human donor RPE cells (passage)) were treated with 50 μg/ml substance 1 or 30 μg/ml Soraprazan and cultured for 28 days. Cells without treatment were used as controls. Cells were fixed for electron microscopy in 2% glutaraldehyde and embedded in EPON. Semithin and ultrathin sections were cut.
In the semithin sections, the clusters could be observed as well. Here, the pigmented cells bearing one or more clusters were counted. Degradational clusters were detected in 90.5%+/−21.3 of cells treated with substance 1 and in 80.1%+/−22.6 of cells treated with Soraprazan, but only in 16.8%+/−21.6 of untreated cells (p<0.0001).

Series [8] relates to RPE cell cultures from human donor eyes. The series can be described thus: Phagocytosis of fluorescent latex beads by RPE cell cultures. The class given is cell-based. The procedure: Then the treatment-dependent ability of the cells to phagocytose, which is a crucial function of the RPE, was checked. For this purpose, RPE cell cultures from human donor eyes were exposed to vehicle or substance 1. After three weeks, fluorescent latex beads were added to the cell cultures for four hours. The cells were then washed to remove non-phagocytosed beads and fixed. Fluorescent images of the cells were taken and analysed for the contents of lipofuscin and the number of phagocytosed beads. The results shown in FIG. 19 are presented as the relationship between lipofuscin content and phagocytosed bead number in both controls and substance-1-treated cells.

A word on the melting point: it is the temperature of the solid-liquid transition.

In turn, `CO[C@@H]1c2ccn3c(C)c(C)nc3c2N[C@@H](c2ccccc2)[C@@H]1O` [Example 2B, (7R,8S,9S)-2,3-Dimethyl-8-hydroxy-7-methoxy-9-phenyl-7,8,9,10-tetrahydro-imidazo[1,2-h][1,7]naphthyridine] yielded a melting point of 171 to 172 °C.

For `COCCO[C@@H]1c2ccn3c(C)c(C)nc3c2N[C@H](c2ccccc2)[C@H]1O` [Soraprazan, (7R,8R,9R)-2,3-Dimethyl-8-hydroxy-7-(2-methoxyethoxy)-9-phenyl-7,8,9,10-tetrahydro-imidazo[1,2-h][1,7]naphthyridine], in [1], the “Lipofuscin granules in depigmented RPE cells (fluorescence, 360 nm illumination)” value is reported as “completely or almost completely absent”. Besides, in series [2] (24 mg/kg/day for 52 weeks), the “Morphological changes in the neuroretina at the ultrastructural level” value is “No morphological changes”. Further, in series [2] (oral 24 mg/kg/day, 52 weeks), the “Monkeys with loss of melanin and lipofuscin in RPE cells” value was 3 out of 7; the “Ultrastructural alterations in the retina compared to untreated monkeys” value is listed as “could not be detected”. Moreover, the “Lipofuscin granules larger than 1 μm in diameter in RPE cells” value in [2] (treated animals) is “absent”. Also, the “Number of lipofuscin granules smaller than 0.4 μm in diameter in the cytoplasm of RPE cells” value in series [2] (ultrathin sections, treated monkeys) was 0.6±0.2 /50 μm^2. The “Number of fluorescent lipofuscin particles per 50 μm RPE layer length” value in series [3] is 15.0±8.3 particles per 50 μm. In series [4], the “Lipofuscin and pigment content in cultured RPE cells” value is reported as “decreased compared to the control”; the “Lipofuscin and melanin in cultured human RPE cells” value was “reduced”. Moreover, in [5], the “ERG a-wave and b-wave amplitudes after injection, compared with vehicle” value is “decrease of the amplitudes is even more pronounced”; the “ERG a-wave and b-wave amplitudes, recovery” value is “remained significantly lower than the base line”. The Conventional histopathology entry in [6] (oral 6 mg/kg/day for 52 weeks) is given as “no alterations”. Besides, in series [6] (oral 12 mg/kg/day for 52 weeks), the Conventional histopathology result is on record as “no alterations”. Also, in series [6] (oral 24 mg/kg/day for 52 weeks), the “Monkeys showing migration of individual macrophages beneath the RPE and/or into the subretinal space” value is listed as “Three out of 12”. The “Pigmented cells bearing degradational clusters” value in [7] (30 μg/ml) is 80.1%+/−22.6.

Consider `CCO[C@@H]1c2ccn3c(C)c(C)nc3c2N[C@H](c2ccccc2)[C@H]1O` [substance 1], for which the “Number of fluorescent lipofuscin particles per 50 μm RPE layer length” value in series [3] is on record as 9.8±6.1 particles per 50 μm. Further, in series [4], the “Lipofuscin and pigment content in cultured RPE cells” value was “even more clear and significant decrease”; the “Lipofuscin and melanin in cultured human RPE cells” value is listed as “reduced”. In [5], the “ERG a-wave and b-wave amplitudes after injection, compared with vehicle” value is given as “decrease of the amplitudes is even more pronounced”; the “ERG a-wave and b-wave amplitudes, recovery” value is recorded as “recover almost completely”. The “Lipofuscin content of RPE cells” value in [8] (after three weeks exposure, versus control (FIG. 19)) is on record as “much more lipofuscin under control conditions than under the influence of substance 1”. Also, in series [8] (three weeks exposure, beads for four hours, versus untreated cells (FIG. 19)), the “Number of phagocytosed latex beads” value is “phagocytosed more beads than untreated cells”. Also, the “Pigmented cells bearing degradational clusters” value in series [7] (50 μg/ml) turned out to be 90.5%+/−21.3.

`CO[C@H]1c2ccn3c(C)c(C)nc3c2N[C@H](c2ccccc2)[C@H]1O` [Example 2A, (7S,8R,9R)-2,3-Dimethyl-8-hydroxy-7-methoxy-9-phenyl-7,8,9,10-tetrahydro-imidazo[1,2-h][1,7]naphthyridine] showed a melting point of 108 to 110 °C.

With `CO[C@@H]1[C@@H](c2ccccc2)Nc2c(ccn3c(C)c(C)nc23)[C@H]1OC` [Example 8, (7R,8R,9R)-2,3-Dimethyl-7,8-dimethoxy-9-phenyl-7,8,9,10-tetrahydro-imidazo[1,2-h][1,7]naphthyridine], the melting point fell in the range of 155 to 156 °C.

Molecule `Cc1nc2c3c(ccn2c1C)[C@H](OC(C)C)[C@H](O)[C@@H](c1ccccc1)N3` [Example 7, (7S,8R,9R)-2,3-Dimethyl-8-hydroxy-9-phenyl-7-(2-propoxy)-7,8,9,10-tetrahydro-imidazo[1,2-h][1,7]naphthyridine] displayed a melting point of 168 to 169 °C.

Molecule `CCO[C@H]1c2ccn3c(C)c(C)nc3c2N[C@H](c2ccccc2)[C@H]1O` [Example 4, (7S,8R,9R)-2,3-Dimethyl-7-ethoxy-8-hydroxy-9-phenyl-7,8,9,10-tetrahydro-imidazo[1,2-h][1,7]naphthyridine] yielded a melting point of 135 to 137 °C.

For `CO[C@H]1c2ccn3c(C)c(C)nc3c2N[C@@H](c2ccccc2)[C@@H]1O` [Example 1B, (7S,8S,9S)-2,3-Dimethyl-8-hydroxy-7-methoxy-9-phenyl-7,8,9,10-tetrahydro-imidazo[1,2-h][1,7]naphthyridine], the melting point lay within 161 to 162 °C.
